What was measured:
[1] = no significant difference in weight versus placebo at D28 or D56
[2] = test system: localized gynoid lipodystrophy of the thighs and of the buttocks (LGL); settings: small dose, topical
Description: The applicant carried out a comparative trial intended to evaluate the efficacy of the composition of the invention, as a local topical application, in patients with gynoid lipodystrophy of the thighs and of the buttocks, in comparison with a placebo, considered as a control group. Concomitantly, the effects of the composition on the softness and firmness of the skin were assessed.
It is a randomized comparative double blind monocenter trial comprising two groups of treatment of localized gynoid lipodystrophy of the thighs and of the buttocks (LGL):
This trial lasted for 9 weeks and comprised a one-week inclusion phase, followed by an 8-week treatment phase. It was carried out in patients suffering from LGL.
Evaluation carried out during the inclusion visit, at D28, and at the final visit for the principal and secondary criteria.
1.-Measurement of the adipose panicle by ultrasound scan, measured with the aid of a wide probe, by looking at the great trochanter of each femur.
The probe was placed on a tripod, at the constant level of the ground for each subject. The measurement was carried out after acquiring the last possible image by detaching the probe from the skin plane.

CN1CCCC1c1cccnc1 (centres unmarked) [Nicotine, nicotine]
overall slimming effect [1]: no overall slimming effect
reduction of the thickness of localized gynoid lipodystrophy (cellulite), on average [2]: 8.9%
